In patent US12421229B2, “Hydropyrido[1,2-α]pyrazine compounds for the treatment of autoimmune disease” (Hoffmann-La Roche Inc., priority 2019, dated 2025):

Assays:
human TLR7 = target: T1, human TLR7 (Homo sapiens, UniProt Q9NYK1); assay: HEK293-Blue-hTLR-7 cells assay; format: cell-based; conditions: HEK293-Blue-hTLR7 cells, R848 stimulation, 20 hrs, SEAP reporter; read-out: HEK/hTLR7 IC50
T1 construct: host or cells: HEK293 (HEK-Blue hTLR7)
T1 sequence (Q9NYK1 27-1049): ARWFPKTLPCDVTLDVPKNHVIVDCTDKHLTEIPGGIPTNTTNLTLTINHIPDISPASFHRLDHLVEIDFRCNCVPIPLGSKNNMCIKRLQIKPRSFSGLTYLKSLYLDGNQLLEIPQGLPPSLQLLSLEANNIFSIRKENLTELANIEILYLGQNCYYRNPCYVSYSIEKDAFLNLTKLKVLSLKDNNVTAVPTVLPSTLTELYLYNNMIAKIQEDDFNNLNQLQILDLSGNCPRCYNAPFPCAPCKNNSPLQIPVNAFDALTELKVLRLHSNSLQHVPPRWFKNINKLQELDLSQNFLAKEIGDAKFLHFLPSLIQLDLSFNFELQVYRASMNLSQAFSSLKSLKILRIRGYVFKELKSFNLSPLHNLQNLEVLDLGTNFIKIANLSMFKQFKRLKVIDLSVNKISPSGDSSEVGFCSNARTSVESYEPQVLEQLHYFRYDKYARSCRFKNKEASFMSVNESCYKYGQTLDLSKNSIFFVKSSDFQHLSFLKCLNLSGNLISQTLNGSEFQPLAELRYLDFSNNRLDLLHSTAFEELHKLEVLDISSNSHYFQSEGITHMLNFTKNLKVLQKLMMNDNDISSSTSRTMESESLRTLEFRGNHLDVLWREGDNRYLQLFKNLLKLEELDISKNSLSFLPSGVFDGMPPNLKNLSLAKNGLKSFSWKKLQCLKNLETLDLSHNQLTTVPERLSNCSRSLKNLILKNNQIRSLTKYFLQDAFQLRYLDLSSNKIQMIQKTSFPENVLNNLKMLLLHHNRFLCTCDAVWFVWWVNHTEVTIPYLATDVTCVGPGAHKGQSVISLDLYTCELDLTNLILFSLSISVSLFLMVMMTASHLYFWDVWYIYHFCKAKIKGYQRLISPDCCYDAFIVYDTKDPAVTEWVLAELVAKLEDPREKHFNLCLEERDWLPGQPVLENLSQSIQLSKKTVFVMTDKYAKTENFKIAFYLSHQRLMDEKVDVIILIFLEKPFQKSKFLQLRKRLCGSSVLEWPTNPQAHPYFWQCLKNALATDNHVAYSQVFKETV
Excerpt: A stable HEK293-Blue-hTLR-7 cell line was purchased from InvivoGen (Cat. #: hkb-htlr7, San Diego, California, USA). These cells were originally designed for studying the stimulation of human TLR7 by monitoring the activation of NF-κB. A SEAP (secreted embryonic alkaline phosphatase) reporter gene was placed under the control of the IFN-β minimal promoter fused to five NF-κB and AP-1-binding sites. The SEAP was induced by activating NF-κB and AP-1 via stimulating HEK-Blue hTLR7 cells with TLR7 ligands. Therefore the reporter expression was declined by TLR7 antagonist under the stimulation of a ligand, such as R848 (Resiquimod), for incubation of 20 hrs. The cell culture supernatant SEAP reporter activity was determined using QUANTI-Blue™ kit (Cat. #: rep-qb1, Invivogen, San Diego, Ca, USA) at a wavelength of 640 nm, a detection medium that turns purple or blue in the presence of alkaline phosphatase.
HEK293-Blue-hTLR7 cells were incubated at a density of 250,000˜450,000 cells/mL in a volume of 170 μL in a 96-well plate in Dulbecco's Modified Eagle's medium (DMEM) containing 4.5 g/L glucose, 50 U/mL penicillin, […], […], 2 mM L-glutamine, 10% (v/v) heat-inactivated fetal bovine serum with addition of 20 μL test compound in a serial dilution in the presence of final DMSO at 1% and 10 μL of 20 uM R848 in above DMEM, perform incubation under 37° C. in a CO2 incubator for 20 hrs. Then 20 μL of the supernatant from each well was incubated with 180 μL Quanti-blue substrate solution at 37° C. for 2 hrs and the absorbance was read at 620˜655 nm using a spectrophotometer. The signaling pathway that TLR7 activation leads to downstream NF-κB activation has been widely accepted, and therefore similar reporter assay was modified for evaluating TLR7 antagonist.

CYP2C9 = target: T2, CYP2C9 (Homo sapiens, UniProt P11712); assay: CYP inhibition assay in human liver microsome, CYP2C9; format: in vitro ADME; conditions: percentage inhibition, substrate Diclofenac 5 μM
T2 construct: tissue BD-Gentest 452117; host or cells: human liver microsomes
T2 sequence (P11712 whole entry): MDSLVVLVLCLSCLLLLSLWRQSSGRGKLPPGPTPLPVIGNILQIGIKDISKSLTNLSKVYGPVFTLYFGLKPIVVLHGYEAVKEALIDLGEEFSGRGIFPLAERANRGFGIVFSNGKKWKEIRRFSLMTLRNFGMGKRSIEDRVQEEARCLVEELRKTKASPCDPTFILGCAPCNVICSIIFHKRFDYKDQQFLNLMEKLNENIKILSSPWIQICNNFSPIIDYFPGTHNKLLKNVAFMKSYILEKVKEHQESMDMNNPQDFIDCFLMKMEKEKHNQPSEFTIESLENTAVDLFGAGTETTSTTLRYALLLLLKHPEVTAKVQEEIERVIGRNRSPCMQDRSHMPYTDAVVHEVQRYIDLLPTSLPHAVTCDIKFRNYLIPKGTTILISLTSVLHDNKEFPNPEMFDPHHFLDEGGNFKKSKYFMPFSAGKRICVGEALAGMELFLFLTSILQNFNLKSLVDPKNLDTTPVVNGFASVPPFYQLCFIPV
Protocol: (§1) This is a high throughput screening assay used for assessment of reversible inhibition of CYP2C9, CYP2D6, and CYP3A4 activity of test compounds in human liver microsome (HLM) in early discovery stage.
(§2) 10 mM DMSO stock solutions of test compounds were diluted in DMSO to generate 2 mM intermediate stock solution. 250 nL of intermediate stock solution were transferred in duplicate into 3 separate 384 well microtitre plates (assay-ready plates). A mixture of HLM and each substrate was made up. 45 μL of HLM substrate mix was then transferred to each well of an assay ready plate and mixed. The negative (solvent) and positive controls (standard inhibitor for each CYP) were included in each assay ready plate. The assay ready plate was warmed to 37° C. in an incubator over 10 minutes. 5 μL pre-warmed NADPH regenerating system was added to each incubation well to start the reaction. Final incubation volume was 50 μL. The assay plate then was placed back in the 37° C. incubator. After incubation (10 minutes for CYP2D6) for 5 minutes, incubates were quenched by addition of 50 μL 100% acetonitrile containing internal standards (400 ng/mL 13C6-4′-OH-Diclofenac, 20 ng/mL D3-Dextrorphan and 20 ng/mL D4-1′OH-Midazolam). The supernatants were collected for RapidFire/MS/MS analysis.
(§3) RapidFire online solid phase extraction/sample injection system (Agilent) coupled with API4000 triple quadrupole mass spectrometer (AB Sciex) were used for sample analysis. The mobile phase composed of acetonitrile and water supplemented with 0.1% formic acid. A C4 solid phase extraction cartridge is used for sample separation. MS detection is achieved in positive ion MRM mode.
(§4) Peak areas for substrate, metabolite and internal standard are determined using the RapidFire integrator software (version 3.6.12009.12296). Peak area ratios (PAR) of metabolite and internal standard (stable-labelled metabolite) are then calculated. The measurement window for each experiment is then defined:
(§5) PAR (0% activity)=average PAR for all incubations containing concentrated inhibitor;
(§6) Par (100% activity)=average PAR for all incubations containing no inhibitor (DMSO controls);
(§7) % Activity (test inhibitor)=[PAR(test inhibitor)−PAR(0% activity)/PAR(100% activity)−PAR(0% activity)];
(§8) % Inhibition (test inhibitor)=100−% Activity (test inhibitor).

CYP2D6 = target: T3, CYP2D6 (Homo sapiens, UniProt P10635); assay: CYP inhibition assay in human liver microsome, CYP2D6; format: in vitro ADME; conditions: percentage inhibition, substrate Dextromethorphan 5 μM
T3 construct: tissue BD-Gentest 452117; host or cells: human liver microsomes
T3 sequence (P10635 whole entry): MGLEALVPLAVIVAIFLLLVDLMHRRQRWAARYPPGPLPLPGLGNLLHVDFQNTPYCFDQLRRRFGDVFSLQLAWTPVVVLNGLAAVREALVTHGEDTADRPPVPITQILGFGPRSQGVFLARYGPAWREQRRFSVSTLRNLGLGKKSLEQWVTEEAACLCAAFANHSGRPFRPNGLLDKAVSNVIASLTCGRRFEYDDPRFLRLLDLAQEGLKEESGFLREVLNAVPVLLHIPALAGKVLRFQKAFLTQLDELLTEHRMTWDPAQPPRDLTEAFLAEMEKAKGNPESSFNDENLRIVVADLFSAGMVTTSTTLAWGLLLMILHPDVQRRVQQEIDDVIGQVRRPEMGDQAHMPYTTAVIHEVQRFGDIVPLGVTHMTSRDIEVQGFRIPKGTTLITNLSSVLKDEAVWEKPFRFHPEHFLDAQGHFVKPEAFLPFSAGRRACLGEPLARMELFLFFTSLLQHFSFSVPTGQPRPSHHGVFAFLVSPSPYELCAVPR
Protocol: as §1, §2, §3, §4, §5, §6, §7, §8

CYP3A4 = target: T4, CYP3A4 (Homo sapiens, UniProt P08684); assay: CYP inhibition assay in human liver microsome, CYP3A4; format: in vitro ADME; conditions: percentage inhibition, substrate Midazolam 5 μM
T4 construct: tissue BD-Gentest 452117; host or cells: human liver microsomes
T4 sequence (P08684 whole entry): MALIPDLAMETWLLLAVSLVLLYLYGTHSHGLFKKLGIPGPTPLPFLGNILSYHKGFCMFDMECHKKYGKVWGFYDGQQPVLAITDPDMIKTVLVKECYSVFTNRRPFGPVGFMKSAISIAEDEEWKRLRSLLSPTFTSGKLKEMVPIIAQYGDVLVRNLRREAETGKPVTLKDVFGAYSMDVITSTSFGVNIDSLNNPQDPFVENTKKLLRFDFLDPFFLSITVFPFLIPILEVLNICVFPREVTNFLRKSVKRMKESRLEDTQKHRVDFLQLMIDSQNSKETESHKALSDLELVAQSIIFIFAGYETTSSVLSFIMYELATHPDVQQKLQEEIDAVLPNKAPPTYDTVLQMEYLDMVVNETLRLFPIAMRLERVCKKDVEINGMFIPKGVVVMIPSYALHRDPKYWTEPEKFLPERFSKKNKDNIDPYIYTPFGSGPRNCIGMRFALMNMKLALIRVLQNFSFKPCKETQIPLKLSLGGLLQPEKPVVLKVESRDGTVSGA
Protocol: as §1, §2, §3, §4, §5, §6, §7, §8

| SMILES | IC50 (human TLR7) [nM] | CYP (%) 2C9 (CYP2C9) [%] | CYP (%) 2D6 (CYP2D6) [%] | CYP (%) 3A4 (CYP3A4) [%] |
| --- | --- | --- | --- | --- |
| CO[C@H]1CN(c2ccc([C@@H]3CCN4[C@@H](C3)CN(c3ccc(C#N)c5ncccc35)C[C@H]4C)cn2)C[C@@H]1N [Example 6, 5-[(4R,8R,9aS)-8-[6-[(3S,4S)-3-amino-4-methoxy-pyrrolidin-1-yl]-3-pyridyl]-4-methyl-1,3,4,6,7,8,9,9a-octahydropyrido[1,2-a]pyrazin-2-yl]quinoline-8-carbonitrile] | 41 | −8 | −12.5 | 11 |
| [2H]c1ccc2c(N3C[C@@H]4C[C@H](Nc5ccc(C[C@H]6CNCCO6)cc5)CCN4[C@H](C)C3)ccc(C#N)c2n1 [Example 34, 5-[(4R,8R,9aS)-4-methyl-8-[4-[[(2S)-morpholin-2-yl]methyl]anilino]-1,3,4,6,7,8,9,9a-octahydropyrido[1,2-a]pyrazin-2-yl]-2-deuterio-quinoline-8-carbonitrile] | 47 | −20 | 2.5 | 3.5 |
| C[C@@H]1CN(c2ccc(C#N)c3ncccc23)C[C@@H]2C[C@H](c3ccc(N4C[C@@H](N)[C@@H](F)C4)nc3)CCN21 [Example 19, 5-[(4R,8R,9aS)-8-[6-[(3R,4S)-3-amino-4-fluoro-pyrrolidin-1-yl]-3-pyridyl]-4-methyl-1,3,4,6,7,8,9,9a-octahydropyrido[1,2-a]pyrazin-2-yl]quinoline-8-carbonitrile] | 15 | −3.5 | −6 | 30 |
| C[C@@H]1CN(c2ccc(C#N)c3ncccc23)C[C@@H]2C[C@H](Nc3ccc(C[C@@H]4CNCCO4)cc3)CCN21 [Example 21, 5-[(4R,8R,9aS)-4-methyl-8-[4-[[(2R)-morpholin-2-yl]methyl]anilino]-1,3,4,6,7,8,9,9a-octahydropyrido[1,2-a]pyrazin-2-yl]quinoline-8-carbonitrile] | 20 | 3 | 9 | 15.5 |
| C[C@@H]1CN(c2ccc(C#N)c3ncccc23)C[C@@H]2C[C@H](N3CC(c4ccc(N5CCNCC5)cc4)C3)CCN21 [Example 9, 5-[(4R,8R,9aS)-4-methyl-8-[3-(4-piperazin-1-ylphenyl)azetidin-1-yl]-1,3,4,6,7,8,9,9a-octahydropyrido[1,2-a]pyrazin-2-yl]quinoline-8-carbonitrile] | 27 | −6.5 | −2 | 9.5 |
| CO[C@@H]1CN(c2ccc([C@@H]3CCN4[C@@H](C3)CN(c3ccc(C#N)c5ncccc35)C[C@H]4C)cn2)C[C@H]1N [Example 14, 5-[(4R,8R,9aS)-8-[6-[(3R,4R)-3-amino-4-methoxy-pyrrolidin-1-yl]-3-pyridyl]-4-methyl-1,3,4,6,7,8,9,9a-octahydropyrido[1,2-a]pyrazin-2-yl]quinoline-8-carbonitrile] | 23 | −1 | −0.5 | 19.5 |
| [2H]c1ccc2c(N3C[C@@H]4C[C@H](N5CCN(c6ccncc6)CC5)CCN4[C@H](C)C3)ccc(C#N)c2n1 [Example 37, 5-[(4R,8R,9aS)-4-methyl-8-[4-(4-pyridyl)piperazin-1-yl]-1,3,4,6,7,8,9,9a-octahydropyrido[1,2-a]pyrazin-2-yl]-2-deuterio-quinoline-8-carbonitrile] | 11 | 4.5 | 14.5 | 32.5 |
| CO[C@H]1CN(c2ccc([C@@H]3CCN4[C@@H](C3)CN(c3ccc(C#N)c5ncccc35)C[C@H]4C)cn2)C[C@H]1N [Example 12, 5-[(4R,8R,9aS)-8-[6-[(3R,4S)-3-amino-4-methoxy-pyrrolidin-1-yl]-3-pyridyl]-4-methyl-1,3,4,6,7,8,9,9a-octahydropyrido[1,2-a]pyrazin-2-yl]quinoline-8-carbonitrile] | 17 | 14.5 | 0 | 37.5 |
| C[C@@H]1CN(c2ccc(C#N)c3ncccc23)C[C@@H]2C[C@@H](Oc3ccc(N4CCNCC4)cn3)CCN21 [Example 11, 5-[(4R,8S,9aS)-4-methyl-8-[(5-piperazin-1-yl-2-pyridyl)oxy]-1,3,4,6,7,8,9,9a-octahydropyrido[1,2-a]pyrazin-2-yl]quinoline-8-carbonitrile] | 46 | 0 | −24.5 | 12 |
| C[C@@H]1CN(c2ccc(C#N)c3ncccc23)C[C@@H]2C[C@H](c3ccc([C@@H]4CNCCO4)cc3)CCN21 [Example 27, 5-[(4R,8R,9aS)-4-methyl-8-[4-[(2R)-morpholin-2-yl]phenyl]-1,3,4,6,7,8,9,9a-octahydropyrido[1,2-a]pyrazin-2-yl]quinoline-8-carbonitrile] | 4 | 4 | 8 | 37 |
| C[C@@H]1CN(c2ccc(C#N)c3ncccc23)C[C@@H]2C[C@H](c3ccc(N4CCOC[C@@H](N)C4)nc3)CCN21 [Example 23, 5-[(4R,8R,9aS)-8[6-[(6S)-6-amino-1,4-oxazepan-4-yl]-3-pyridyl]-4-methyl-1,3,4,6,7,8,9,9a-octahydropyrido[1,2-a]pyrazin-2-yl]quinoline-8-carbonitrile] | 21 | – | – | – |
